From patent US7964349B2, “Method to determine responsiveness of cancer to epidermal growth factor receptor targeting treatments” (The General Hospital Corporation, priority 2004, dated 2011)
“And” between values parts separate entries of the source, which are not always exact repeats. Equal entries are not always repeated. “Also recorded” adds a separate entry of the source.

Assays:
[1] = test system: Lung cancer cells harboring EGFR mutations vs cells with wild-type receptor; assay: Apoptosis / cell viability (MTT) assay with increasing drug concentrations; format: cell-based, human; details: compared with cells expressing only wild-type EGFR
Method: 10,000 cells were seeded into individual wells of a 96-well plate. […] After 96 hours, the viability of cells was determined using the MTT assay. For caspase immunostaining, 10,000 cells were seeded onto 10 mm coverslips. The next day they were transfected with siRNA (see previous section for details). After 72 hours the cells were fixed in 4% paraformaldehyde at room temperature for 10 min. They were subsequently permeabilized for 5 min in 0.5% Triton X-100 and blocked for 1 hr in 5% normal goat serum (NGS). […] The next day the coverslips were washed 3 times in PBS and incubated for 1 hour with secondary antibody (goat anti-rabbit Texas-red conjugated; from Jackson Immunoresearch; West Grove, Pa.) at a 1:250 dilution in 5% normal goat serum and 0.5 μg/ml of DAPI (4′,6-Diamidino-2-phenylindole). After 3 washes in PBS the coverslips were mounted with ProLong Gold anti-fade reagent from Molecular Probes (Eugene, Oreg.).
10 μl of 5 mg/ml MTT (Thiazolyl blue; Sigma) solution was added to each well of a 96-well plate. After 2 hours of incubation at 37° C., the medium was removed and the MTT was solubilized by the addition of 100 μl of acidic isopropanol (0.1N HCL) to each well. The absorbance was determined spectophotometrically at 570 nm.

advanced NSCLC = assay: Randomized trial of carboplatin/paclitaxel with or without erlotinib in advanced NSCLC; format: in vivo, human
Method: Tumor specimens were analyzed from patients with advanced NSCLC treated on the randomized trial of carboplatin/paclitaxel with or without erlotinib.

[2] = test system: non-small cell lung cancer (NSCLC)
Method: A significant clinical response was defined either as a partial response using RECIST criteria for patients with measurable disease, or for patients whose tumor burden could not be quantified using these criteria, an evaluable response was assessed by two physicians.

[3] = test system: non-small cell lung cancer (NSCLC); details: cited from earlier work
[4] = single patients 1-9, one per line
[5] = multi-institutional phase II trial

Compound: Fas-ligand
- resistance of EGFR-mutant lung cancer cells to induced cell death signals [1]: markedly increased resistance

Compound: N.N.[Cl][Pt][Cl] [cisplatin]
- resistance of EGFR-mutant lung cancer cells to induced cell death signals [1]: markedly increased resistance

Compound: COc1cccc2c1C(=O)c1c(O)c3c(c(O)c1C2=O)C[C@@](O)(C(=O)CO)C[C@@H]3O[C@H]1C[C@H](N)[C@H](O)[C@H](C)O1 [doxorubicin]
- resistance of EGFR-mutant lung cancer cells to induced cell death signals [1]: markedly increased resistance

Compound: C#Cc1cccc(Nc2ncnc3cc(OCCOC)c(OCCOC)cc23)c1 [erlotinib]
- survival in the two treatment arms (advanced NSCLC): equivalent survival

Compound: COc1cc2ncnc(Nc3ccc(F)c(Cl)c3)c2cc1OCCCN1CCOCC1 [Gefitinib]
- patients identified as having significant clinical responses ([2]; of a total of 275 patients treated): 25 patients
- Overall Survival, from the beginning of gefitinib treatment to death [2, 4]: >14.0 mo and 12.9 mo and >21.4 mo and >7.8 mo and >4.3 mo and 17.9 mo and 18.8 mo
- Response [2, 4]: Major; Improved bilateral; also recorded: Partial; improved lung; also recorded: Minor; improved pleural; also recorded: Partial; improved liver; also recorded: Major; improved lung
- median survival from the start of drug treatment ([2]; the 9 responder patients of Table 1): > 18 months
- patients with dramatic clinical responses ([3]; chemotherapy-refractory NSCLC): approximately 10%
- side effects of treatment ([3]; generally believed consequence of EGFR inhibition in normal tissues): diarrhea and dermatitis
- response rate, Japanese patients [3, 5]: 27.5%
- response rate, predominantly European-derived population [3, 5]: 10.4%
